Test results published in ChEMBL document CHEMBL1201862, “PubChem BioAssay data set” (2004).
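Tested at 5 concentrations; 48 h exposure; 96-well plates; endpoints linearly interpolated, else capped at highest concentration. GI50: concentration for 50% inhibition of growth.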 Active and inactive are the calls of the source. Cut-off read from the data, not from the text of the source: active = GI50 up to about 1.1 µM and inactive = higher.

How the values were obtained:
Experiment in all cases: DTP human tumour cell line panel, 48 h
A498 = system: A498
ACHN = system: ACHN
CCRF-CEM = system: CCRF-CEM
DU-145 = system: DU-145
HCT-116 = system: HCT-116
HT-29 = system: HT-29
LOX IMVI = system: LOX IMVI
MCF7 = system: MCF7
MDA-MB-231 = system: MDA-MB-231
MOLT-4 = system: MOLT-4
NCI-H23 = system: NCI-H23
NCI-H460 = system: NCI-H460
NCI/ADR-RES = system: NCI/ADR-RES
OVCAR-3 = system: OVCAR-3
OVCAR-8 = system: OVCAR-8
PC-3 = system: PC-3
SK-MEL-28 = system: SK-MEL-28
SW-620 = system: SW-620
TK-10 = system: TK-10
UACC-257 = system: UACC-257

Measured: GI50

Cc1ccc(/C=C2\CN(C)CC3C2=NN(c2ccccc2)C3c2ccc(C)cc2)cc1 (stereo not given)
inactive: A498 35.3 µM | ACHN > 100 µM | CCRF-CEM 29 µM | DU-145 > 100 µM | HCT-116 > 100 µM | HT-29 > 100 µM | LOX IMVI > 100 µM | MCF7 > 100 µM | MDA-MB-231 > 100 µM | MOLT-4 36.4 µM | NCI-H23 > 100 µM | NCI-H460 > 100 µM | NCI/ADR-RES > 100 µM | OVCAR-3 > 100 µM | OVCAR-8 > 100 µM | PC-3 38.9 µM | SK-MEL-28 > 100 µM | SW-620 > 100 µM | TK-10 > 100 µM | UACC-257 > 100 µM

COC(=O)C1=C([C@H]2COC(C)(C)O2)[C@H]2C[C@@H]1[C@@H]1OC(C)(C)O[C@@H]12
inactive: A498 > 100 µM | ACHN > 100 µM | CCRF-CEM > 100 µM | DU-145 > 100 µM | HCT-116 > 100 µM | HT-29 > 100 µM | LOX IMVI > 100 µM | MCF7 > 100 µM | MDA-MB-231 > 100 µM | MOLT-4 > 100 µM | NCI-H23 > 100 µM | NCI-H460 > 100 µM | NCI/ADR-RES > 100 µM | OVCAR-3 > 100 µM | OVCAR-8 > 100 µM | PC-3 > 100 µM | SK-MEL-28 > 100 µM | SW-620 > 100 µM | TK-10 > 100 µM | UACC-257 > 100 µM

Clc1ccc(CCNC2(c3cc4ccccc4s3)CCCCC2)cc1Cl
inactive: A498 19.1 µM | ACHN 26.2 µM | CCRF-CEM 12.9 µM | DU-145 32.9 µM | HCT-116 12.4 µM | HT-29 10 µM | LOX IMVI 18.5 µM | MCF7 17 µM | MDA-MB-231 21.1 µM | MOLT-4 13.8 µM | NCI-H23 26.5 µM | NCI-H460 14.8 µM | NCI/ADR-RES 24 µM | OVCAR-3 20.6 µM | OVCAR-8 31.9 µM | PC-3 43.2 µM | SK-MEL-28 25.2 µM | SW-620 34.7 µM | TK-10 20.8 µM | UACC-257 19 µM

c1ccc2/c3[nH]/c(c2c1)=N\c1ccc(cc1)-c1nc2ccc(cc2o1)/N=c1/[nH]/c(c2ccccc12)=N/c1ccc2nc(oc2c1)-c1ccc(cc1)\N=3
inactive: A498 33.5 µM | ACHN 16.6 µM | CCRF-CEM 2.26 µM | DU-145 23.2 µM | HCT-116 32.8 µM | HT-29 33.4 µM | LOX IMVI 29.4 µM | MCF7 37.8 µM | MDA-MB-231 27 µM | MOLT-4 14.9 µM | NCI-H23 43.4 µM | NCI-H460 7.38 µM | NCI/ADR-RES 20.5 µM | OVCAR-3 26.5 µM | OVCAR-8 > 100 µM | PC-3 29.9 µM | SK-MEL-28 24.5 µM | SW-620 26.5 µM | TK-10 > 100 µM | UACC-257 > 100 µM

Cc1nnc(CC#N)n1NC(=O)CC#N
inactive: A498 > 100 µM | ACHN > 100 µM | CCRF-CEM > 100 µM | DU-145 > 100 µM | HCT-116 > 100 µM | HT-29 > 100 µM | LOX IMVI > 100 µM | MCF7 > 100 µM | MDA-MB-231 > 100 µM | MOLT-4 > 100 µM | NCI-H23 > 100 µM | NCI-H460 > 100 µM | NCI/ADR-RES > 100 µM | OVCAR-3 > 100 µM | OVCAR-8 > 100 µM | PC-3 > 100 µM | SK-MEL-28 > 100 µM | SW-620 > 100 µM | TK-10 > 100 µM | UACC-257 > 100 µM
